Experimental data from patent US20260226041A1 (ARIGENX THERAPEUTICS CO., LTD., priority 2023, published 2026).
Counter-ions that a name gives are not always drawn. Like-named read-outs stand apart in the source and are kept apart here.

Key:
[1] = biological target: T1, rat AHR (Rattus norvegicus, UniProt P41738); test: Rat AHR agonist luciferase assay (6x XRE Nano-luc reporter in H-4-II-E cells); assay type: cell-based; conditions: AHR activation, rat hepatoma H-4-II-E reporter cells, incubated 4 to 24 hours; read-out: H4IIE EC50
T1 construct: The reporter gene was introduced into a genome of rat hepatoma H-4-II-E cells via lentiviral infection; endogenous in cells; host or cells: H-4-II-E (rat hepatoma) with a lentivirally integrated 6x XRE Nano-luc reporter
T1 sequence (P41738 10-853): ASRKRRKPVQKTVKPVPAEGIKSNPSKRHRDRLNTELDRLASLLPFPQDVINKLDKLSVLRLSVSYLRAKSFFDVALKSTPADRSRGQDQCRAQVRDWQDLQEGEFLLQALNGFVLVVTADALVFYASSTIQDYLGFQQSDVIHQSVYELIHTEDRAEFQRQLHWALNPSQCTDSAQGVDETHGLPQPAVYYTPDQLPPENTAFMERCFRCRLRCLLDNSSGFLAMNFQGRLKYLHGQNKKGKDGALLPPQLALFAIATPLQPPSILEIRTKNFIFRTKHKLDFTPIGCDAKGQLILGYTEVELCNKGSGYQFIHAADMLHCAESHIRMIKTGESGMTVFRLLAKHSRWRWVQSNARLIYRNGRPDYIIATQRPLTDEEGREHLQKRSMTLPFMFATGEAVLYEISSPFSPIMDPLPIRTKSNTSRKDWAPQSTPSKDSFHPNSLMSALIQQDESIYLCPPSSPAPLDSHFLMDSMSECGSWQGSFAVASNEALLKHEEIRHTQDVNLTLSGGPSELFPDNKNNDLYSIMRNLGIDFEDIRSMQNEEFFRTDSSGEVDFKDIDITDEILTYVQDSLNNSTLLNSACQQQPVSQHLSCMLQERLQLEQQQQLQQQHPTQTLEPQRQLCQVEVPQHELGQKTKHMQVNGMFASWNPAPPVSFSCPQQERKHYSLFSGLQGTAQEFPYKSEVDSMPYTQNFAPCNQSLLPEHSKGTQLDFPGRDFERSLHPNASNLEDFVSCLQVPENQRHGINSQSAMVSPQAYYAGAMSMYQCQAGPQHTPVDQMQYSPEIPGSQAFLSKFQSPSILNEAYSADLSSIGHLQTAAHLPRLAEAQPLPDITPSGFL
Description: A lentivirus containing the reporter gene was generated by co-transfecting the transfer plasmid with packaging plasmids into 293T cells using conventional transfection methods in the art, followed by purification. The reporter gene was introduced into a genome of rat hepatoma H-4-II-E cells via lentiviral infection, and cells stably expressing the reporter gene were selected with puromycin for the rat AHR agonist luciferase assay.

[2] = biological target: mouse AHR (Mus musculus, UniProt P30561); test: Mouse AHR agonist luciferase assay (6x XRE Nano-luc reporter in Hepa1-6 cells);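 also: stable Hepa1-6 reporter line, 4–24 h exposure, 11-point serial dilution, Nano-Glo luminescence as fold over medium-only baseline, EC50 from four-parameter fit of activation fold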
Description: The reporter gene plasmid was transfected into mouse hepatoma Hepa1-6 cells by a conventional liposome transfection method in the art, and stably expressing cells were selected by puromycin for the mouse AHR agonist luciferase assay.
On day one, the stably expressing reporter gene Hepa1-6 cell line was counted and seeded into a white opaque 96-well plate at a density of 1×10^4 cells per well −8×10^4 cells per well using 100 μL of phenol red-free Dulbecco's Modified Eagle Medium (DMEM) (DMEM without phenol red, 10% fetal bovine serum). The cells were cultured in an incubator maintained at 37° C. with 5% CO2 for 24 hours.
Test compounds were prepared as 10 mM stock solutions in DMSO and stored at 4° C. protected from light. Before treatment, the compound stock solutions, positive control compounds (e.g., dioxin, ITE, or kynurenine), and a negative control compound (DMSO) were subjected to preliminary dilution (determined based on pre-experiments) with complete medium without tryptophan and phenol red, followed by 3- to 20-fold serial dilutions to 11 concentration points to obtain 10× dilution solutions. When treating the cells, 10 μL of medium was first aspirated from the 96-well plate containing the seeded cells, and then 10 μL of the serially diluted 10× dilution solution was added. Each compound was tested in duplicate, and each duplicate experiment included a well with a concentration of 0 (i.e., containing only medium) to determine the baseline. The reporter cells were returned to the incubator and incubated for 4 to 24 hours after treatment.
After treatment, 100 μL/well of Nano-Glo Luciferase Assay Reagent was added to the 96-well plate, and the RLU of each well was measured. The RLU values for the wells with the concentration of 0 on the 96-well plates were averaged to calculate the baseline Ave RLU^Vehicle The activity of AHR induced by the test compounds at different concentrations was calculated according to Formula (1) based on the ratio of RLU^Test Cmpd from the experimental groups to the baseline Ave RLU^Vehicle, to determine the activation fold.
The activation fold and the corresponding compound concentration were fitted using GraphPad Prism 9 with [Agonist] vs. response—variable slope (four parameters) to determine the EC50 of the compound for AHR activation.

[3] = biological target: T2, human AHR (Homo sapiens, UniProt P35869); test: Human AHR agonist luciferase assay (CYP1A1 promoter Nano-luc reporter in HepG2 cells);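 also: stably transfected HepG2 clone, DRE-containing 1200 bp promoter region driving Nano-luc, treated 4 to 24 h with 11-point dilutions in tryptophan-free medium, medium-only wells as baseline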
T2 sequence (P35869 11-848): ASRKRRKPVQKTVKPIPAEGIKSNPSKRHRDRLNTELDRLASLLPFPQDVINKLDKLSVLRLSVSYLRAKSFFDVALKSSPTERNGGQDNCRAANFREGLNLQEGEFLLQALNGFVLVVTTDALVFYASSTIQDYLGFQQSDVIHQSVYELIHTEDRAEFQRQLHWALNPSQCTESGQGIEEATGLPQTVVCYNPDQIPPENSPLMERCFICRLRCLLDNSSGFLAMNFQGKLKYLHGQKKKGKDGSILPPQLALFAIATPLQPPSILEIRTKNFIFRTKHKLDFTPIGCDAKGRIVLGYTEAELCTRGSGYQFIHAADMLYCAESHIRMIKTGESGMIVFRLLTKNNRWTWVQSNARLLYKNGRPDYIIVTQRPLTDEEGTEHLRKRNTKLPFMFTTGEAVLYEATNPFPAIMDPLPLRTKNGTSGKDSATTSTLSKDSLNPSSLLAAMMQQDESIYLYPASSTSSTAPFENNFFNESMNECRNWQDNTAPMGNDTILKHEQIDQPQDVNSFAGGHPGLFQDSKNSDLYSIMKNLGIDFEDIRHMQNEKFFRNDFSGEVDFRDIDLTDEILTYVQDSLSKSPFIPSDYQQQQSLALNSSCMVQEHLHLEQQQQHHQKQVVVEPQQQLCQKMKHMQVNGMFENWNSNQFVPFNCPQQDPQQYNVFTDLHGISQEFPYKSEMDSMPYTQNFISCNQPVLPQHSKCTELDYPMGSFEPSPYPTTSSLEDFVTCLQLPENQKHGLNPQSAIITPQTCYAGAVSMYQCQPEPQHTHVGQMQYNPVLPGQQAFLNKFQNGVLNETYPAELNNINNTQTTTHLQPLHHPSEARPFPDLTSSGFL
Description: To detect AHR activation, a reporter gene plasmid was constructed by placing the gene sequence from −1200 bp to 0 bp upstream of CYP1A1 in front of a Nano-luc luciferase reporter gene according to conventional construction methods of reporter gene plasmids in the art. The reporter gene plasmid was transfected into human hepatoma HepG2 cells by a conventional liposome transfection method in the art, and stably expressing cells were selected by puromycin. The selected cells were diluted to a concentration of 5 cells/mL and seeded into a 96-well plate at 100 μL/well, and single clones were obtained after growth. A single clone with normal morphology, normal growth, and the highest induction signal was selected for the human AHR agonist luciferase assay.
On day one, the HepG2 monoclonal cell line stably expressing reporter gene was counted and seeded into a white opaque 96-well plate at a density of 1×10^4 cells per well −8×10^4 cells per well using 100 μL of complete medium without tryptophan and phenol red (minimal essential medium (MEM) without tryptophan and phenol red, 10% (v/v) fetal bovine serum, 1× non-essential amino acids, 1× sodium pyruvate, and 1× GlutaMax). The cells were cultured in an incubator maintained at 37° C. with 5% (v/v) CO2 for 24 hours.
Test compounds were prepared as 10 mmol/L stock solutions in dimethyl sulfoxide (DMSO) and stored at 4° C. protected from light. Before treatment, the compound stock solutions, positive control compounds (e.g., dioxin, 2-(1H-indole-3-carbonyl)thiazole-4-carboxylic acid methyl ester (ITE), or kynurenine), and a negative control compound (DMSO) were subjected to preliminary dilution (determined based on pre-experiments) with the complete medium without tryptophan and phenol red, followed by 3- to 20-fold serial dilutions to 11 concentration points to obtain 2× dilution solutions. When treating the cells, 50 μL of medium was first aspirated from the 96-well plate containing the seeded cells, and then 50 μL of the serially diluted 2× dilution solution was added. Each compound was tested in duplicate, and each duplicate experiment included a well with a concentration of 0 (i.e., containing only the medium) to determine the baseline. The reporter cells were returned to the incubator and incubated for 4 to 24 hours after treatment.
After treatment, 100 μL/well of Nano-Glo Luciferase Assay Reagent was added to the 96-well plate, and the relative light unit (RLU) of each well was measured. The RLU values for the wells with the concentration of 0 on the 96-well plates were averaged to calculate the baseline Ave RLU^Vehicle. The activity of AHR induced by the test compounds at different concentrations was calculated according to Formula (1) based on the ratio of RLU^Test Cmpd from the experimental groups to the baseline Ave RLU^Vehicle, to determine the activation fold.
The activation fold and the corresponding compound concentration were fitted using GraphPad Prism 9 with [Agonist] vs. response—variable slope (four parameters) to calculate the EC50 of the compound for AHR activation.

[4] = read-out: HepG2 EC50, AHR activation, human hepatoma HepG2 reporter cells, incubated 4 to 24 hours

Sequence of mouse AHR (P30561 10-805 limits assumed): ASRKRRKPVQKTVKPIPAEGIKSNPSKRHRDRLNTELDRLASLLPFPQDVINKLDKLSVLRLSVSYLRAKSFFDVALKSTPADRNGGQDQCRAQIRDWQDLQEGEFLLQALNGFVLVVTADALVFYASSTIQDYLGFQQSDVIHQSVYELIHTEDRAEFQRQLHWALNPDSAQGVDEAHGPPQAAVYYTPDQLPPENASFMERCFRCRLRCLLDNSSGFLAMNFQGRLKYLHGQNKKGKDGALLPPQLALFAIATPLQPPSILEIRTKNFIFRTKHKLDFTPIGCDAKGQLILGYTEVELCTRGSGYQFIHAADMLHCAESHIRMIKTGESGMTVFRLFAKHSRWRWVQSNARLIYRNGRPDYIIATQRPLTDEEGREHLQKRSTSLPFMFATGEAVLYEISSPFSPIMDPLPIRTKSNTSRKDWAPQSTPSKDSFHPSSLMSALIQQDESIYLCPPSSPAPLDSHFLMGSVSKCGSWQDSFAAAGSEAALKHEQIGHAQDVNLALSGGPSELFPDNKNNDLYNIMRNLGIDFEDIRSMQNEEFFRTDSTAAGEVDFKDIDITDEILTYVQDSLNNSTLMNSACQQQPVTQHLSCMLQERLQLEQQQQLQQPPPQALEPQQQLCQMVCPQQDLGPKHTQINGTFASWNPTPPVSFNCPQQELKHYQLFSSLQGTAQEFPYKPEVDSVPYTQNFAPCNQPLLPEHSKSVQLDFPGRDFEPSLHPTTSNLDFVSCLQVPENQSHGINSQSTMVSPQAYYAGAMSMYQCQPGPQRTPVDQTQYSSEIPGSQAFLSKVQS
Sequence of mouse AHR (P53762 whole entry partner): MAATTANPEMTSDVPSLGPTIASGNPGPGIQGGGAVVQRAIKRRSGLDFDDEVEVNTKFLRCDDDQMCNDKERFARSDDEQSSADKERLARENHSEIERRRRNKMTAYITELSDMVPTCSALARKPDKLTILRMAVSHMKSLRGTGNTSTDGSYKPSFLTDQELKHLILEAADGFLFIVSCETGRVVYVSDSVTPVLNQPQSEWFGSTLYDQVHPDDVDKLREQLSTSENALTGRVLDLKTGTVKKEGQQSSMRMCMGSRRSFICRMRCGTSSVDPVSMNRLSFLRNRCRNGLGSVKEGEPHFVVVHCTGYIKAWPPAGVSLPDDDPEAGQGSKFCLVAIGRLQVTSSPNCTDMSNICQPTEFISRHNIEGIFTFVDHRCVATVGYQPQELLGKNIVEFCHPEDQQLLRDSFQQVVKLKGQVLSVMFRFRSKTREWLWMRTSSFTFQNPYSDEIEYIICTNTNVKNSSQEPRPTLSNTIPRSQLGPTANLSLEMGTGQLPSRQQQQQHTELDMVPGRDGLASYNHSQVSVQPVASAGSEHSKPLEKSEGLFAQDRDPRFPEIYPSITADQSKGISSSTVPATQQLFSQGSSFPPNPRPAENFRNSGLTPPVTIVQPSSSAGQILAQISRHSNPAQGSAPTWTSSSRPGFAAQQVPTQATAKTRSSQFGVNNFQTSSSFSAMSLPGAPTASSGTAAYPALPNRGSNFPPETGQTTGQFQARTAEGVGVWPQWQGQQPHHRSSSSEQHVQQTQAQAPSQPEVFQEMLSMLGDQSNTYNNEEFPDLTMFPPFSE

SMILES | EC50 [1] | EC50 [2] | EC50 [3] | EC50 ([2]; read-out: Hepa 1-6 EC50, AHR activation, mouse hepatoma Hepa1-6 reporter cells, incubated 4 to 24 hours) | EC50 [3, 4]
O=C(c1nc(C2CCOC2=O)cs1)c1c[nH]c2ccccc12 (single isomer, unassigned) [Compound 1-isomer-B] | ≤ 10 nM |  |  | < 100 nM | 
O=C(c1nc(C2(O)CCOC2=O)cs1)c1c[nH]c2ccc(F)cc12 (centres unmarked) [Compound 2-4] |  | < 100 nM | < 500 nM |  | 
COc1ccc2[nH]cc(C(=O)c3nc(C4(O)CCOC4=O)cs3)c2c1 (centres unmarked) [Compound 2-5] |  | < 100 nM | < 500 nM |  | 
COc1ccc2[nH]cc(C(=O)c3nc(C4(F)CCOC4=O)cs3)c2c1 (centres unmarked) [Compound 3-5] |  |  | 500 to 2000 nM |  | 
O=C1OCC(O)=C1c1csc(C(=O)c2c[nH]c3ccccc23)n1 [Compound 6] |  |  | 500 to 2000 nM |  | 
CN1CCC(c2csc(C(=O)c3c[nH]c4cc(F)ccc34)n2)C1=O (centres unmarked) [Compound 7-2] | 2000 to 100000 nM |  | < 500 nM |  | 
COc1ccc2c(C(=O)c3nc(C4CCN(C)C4=O)cs3)c[nH]c2c1 (centres unmarked) [Compound 7-3] | 2000 to 100000 nM |  | < 500 nM |  | 
CN1CCC(c2csc(C(=O)c3c[nH]c4ccc(F)cc34)n2)C1=O (centres unmarked) [Compound 7-4] | 2000 to 100000 nM |  | < 500 nM |  | 
CN1CCC(c2csc(C(=O)c3c[nH]c4ccccc34)n2)C1=O (centres unmarked) [Compound 7] | 2000 to 100000 nM |  | < 500 nM |  | 
CC1CC(c2csc(C(=O)c3c[nH]c4cc(F)ccc34)n2)C(=O)O1 (centres unmarked) [Compound 8-2] |  | < 100 nM | < 500 nM |  | 
COc1ccc2c(C(=O)c3nc(C4CC(C)OC4=O)cs3)c[nH]c2c1 (centres unmarked) [Compound 8-3] |  | < 100 nM | < 500 nM |  | 
CC1CC(c2csc(C(=O)c3c[nH]c4ccc(F)cc34)n2)C(=O)O1 (centres unmarked) [Compound 8-4] |  | < 100 nM | < 500 nM |  | 
COc1ccc2[nH]cc(C(=O)c3nc(C4CC(C)OC4=O)cs3)c2c1 (centres unmarked) [Compound 8-5] |  | < 100 nM | < 500 nM |  | 
CC1CC(c2csc(C(=O)c3c[nH]c4cc5c(cc34)OCO5)n2)C(=O)O1 (centres unmarked) [Compound 8-6] |  | < 100 nM | < 500 nM |  | 
C[C@@H]1C[C@H](c2csc(C(=O)c3c[nH]c4ccccc34)n2)C(=O)O1 [Compound 8-cis-1] |  |  |  |  | < 500 nM
C[C@H]1C[C@@H](c2csc(C(=O)c3c[nH]c4ccccc34)n2)C(=O)O1 [Compound 8-cis-2] |  |  |  |  | < 500 nM
C[C@@H]1C[C@@H](c2csc(C(=O)c3c[nH]c4ccccc34)n2)C(=O)O1 [Compound 8-trans-1] |  |  |  |  | < 500 nM
C[C@H]1C[C@H](c2csc(C(=O)c3c[nH]c4ccccc34)n2)C(=O)O1 [Compound 8-trans-2] |  |  |  |  | < 500 nM
CC(C)[C@H](N)C(=O)n1cc(C(=O)c2nc(C3CCOC3=O)cs2)c2ccccc21 (stereo partly drawn) [Compound 9, 3-[2-({1-[(2S)-2-amino-3-methylbutanoyl]indol-3-yl}carbonyl)-1,3-thiazol-4-yl]tetrahydrofuran-2-one hydrochloride] |  | 100 to 2000 nM | 500 to 2000 nM |  | 
O=C(c1nc(C2CCOC2=O)cs1)c1cn(CO)c2ccccc12 (centres unmarked) [Compound 10, 3-{2-[1-(hydroxymethyl)indole-3-carbonyl]thiazol-4-yl}tetrahydrofuran-2-one] |  | 100 to 2000 nM | 500 to 2000 nM |  | 
O=C(c1nc(C2CCOC2=O)cs1)c1cn(P(=O)(O)O)c2ccccc12 (centres unmarked) [Compound 11] |  | 100 to 2000 nM | 500 to 2000 nM |  | 
O=C(c1nc(C2CCOC2=O)cs1)c1cn(COP(=O)(O)O)c2ccccc12 (centres unmarked) [Compound 12, {3-[4-(2-oxotetrahydrofuran-3-yl)thiazole-2-carbonyl]-1H-indol-1-yl}methylphosphoric acid] |  | 100 to 2000 nM | 500 to 2000 nM |  | 
CC(C)[C@H](N)C(=O)OCn1cc(C(=O)c2nc(C3CCOC3=O)cs2)c2ccccc21 (some centres unmarked) [Compound 13, hydrochloride] |  | 100 to 2000 nM | 500 to 2000 nM |  | 
COCCOCCOCCOCC(=O)OCn1cc(C(=O)c2nc(C3CCOC3=O)cs2)c2ccccc21 (centres unmarked) [Compound 14, 3,6,9,12-tetraoxatridecanoic acid {3-[4-(2-oxotetrahydrofuran-3-yl)thiazole-2-carbonyl]-1H-indol-1-yl}methyl ester] |  | 100 to 2000 nM | 500 to 2000 nM |  | 
COCCOCCOCCOCC(=O)n1cc(C(=O)c2nc(C3CCOC3=O)cs2)c2ccccc21 (centres unmarked) [Compound 15, 3-{2-[1-(3,6,9,12-tetraoxatridecanoyl)-1H-indole-3-carbonyl]thiazol-4-yl}dihydrofuran-2(3H)-one] |  | 100 to 2000 nM | 500 to 2000 nM |  | 

Continued, in another order:

EC50 [1] | EC50 [2] | EC50 [3] | EC50 ([2]; read-out: Hepa 1-6 EC50, AHR activation, mouse hepatoma Hepa1-6 reporter cells, incubated 4 to 24 hours) | SMILES | EC50 [3, 4]
≤ 10 nM | < 100 nM | < 500 nM |  | O=C(c1nc(C2CCOC2=O)cs1)c1c[nH]c2ccccc12 (single isomer, unassigned) [Compound 1-isomer-A] | 
≤ 10 nM | < 100 nM | < 500 nM |  | O=C(c1nc(C2CCOC2=O)cs1)c1c[nH]c2ccccc12 (centres unmarked) [Compound 1, 3-[2-(1H-indole-3-carbonyl)-1,3-thiazol-4-yl]tetrahydrofuran-2-one] | 
≤ 10 nM | < 100 nM | < 500 nM |  | O=C(c1nc(C2CCOC2=O)cs1)c1c[nH]c2cc(F)ccc12 (centres unmarked) [Compound 1-2] | 
≤ 10 nM | < 100 nM | < 500 nM |  | COc1ccc2c(C(=O)c3nc(C4CCOC4=O)cs3)c[nH]c2c1 (centres unmarked) [Compound 1-3] | 
≤ 10 nM | < 100 nM | < 500 nM |  | O=C(c1nc(C2CCOC2=O)cs1)c1c[nH]c2ccc(F)cc12 (centres unmarked) [Compound 1-4] | 
≤ 10 nM | < 100 nM | < 500 nM |  | COc1ccc2[nH]cc(C(=O)c3nc(C4CCOC4=O)cs3)c2c1 (centres unmarked) [Compound 1-5] | 
≤ 10 nM | < 100 nM | < 500 nM |  | O=C(c1nc(C2CCOC2=O)cs1)c1c[nH]c2cc3c(cc12)OCO3 (centres unmarked) [Compound 1-6] | 
 |  | < 500 nM |  | O=C(c1nc(C2CCOC2=O)cs1)c1c[nH]c2cc(Cl)ccc12 (centres unmarked) [Compound 1-7] | 
 |  | < 500 nM |  | Cc1ccc2c(C(=O)c3nc(C4CCOC4=O)cs3)c[nH]c2c1 (centres unmarked) [Compound 1-8] | 
 |  | < 500 nM |  | N#Cc1ccc2c(C(=O)c3nc(C4CCOC4=O)cs3)c[nH]c2c1 (centres unmarked) [Compound 1-9] | 
 | < 100 nM | < 500 nM |  | O=C(c1nc(C2(F)CCOC2=O)cs1)c1c[nH]c2cc(F)ccc12 (centres unmarked) [Compound 3-2] | 
 | < 100 nM | < 500 nM |  | COc1ccc2c(C(=O)c3nc(C4(F)CCOC4=O)cs3)c[nH]c2c1 (centres unmarked) [Compound 3-3] | 
 | 100 to 2000 nM | < 500 nM |  | O=C(c1nc(C2(F)CCOC2=O)cs1)c1c[nH]c2ccc(F)cc12 (centres unmarked) [Compound 3-4] | 
 | < 100 nM | < 500 nM |  | O=C(c1nc(C2(F)CCOC2=O)cs1)c1c[nH]c2ccccc12 (centres unmarked) [Compound 3] | 
 |  | < 500 nM |  | COc1ccc2c(C(=O)c3nc(C4(Cl)CCOC4=O)cs3)c[nH]c2c1 (centres unmarked) [Compound 4-3] | 
 |  | < 500 nM |  | O=C(c1nc(C2(Cl)CCOC2=O)cs1)c1c[nH]c2ccc(F)cc12 (centres unmarked) [Compound 4-4] | 
 | < 100 nM | < 500 nM |  | O=C1OCC=C1c1csc(C(=O)c2c[nH]c3ccccc23)n1 [Compound 5] | 
